Reference: PubChem BioAssay AID743394 (Broad Institute, 2014)
Activity calls are given as the source filed them.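 Rule for the calls: active = 40% activation versus positive control reached by fitted dose-response curve at or below highest valid tested dose; inconclusive = poor fit quality, or flat fit with activation between 30% and 70%; inactive = the rest.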

Test: inactive X chromosome reactivation in XiGFP fibroblasts, dose response, imaging, 68-5-11 mouse fibroblasts, GFP, cherry-pick (AID 743394);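 note: sensitizer 5-aza-dC present in the wells at 0.5 mM final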
Settings: 68-5-11 mouse fibroblast XiGFP reporter, % GFP-positive imaging, 3 d
[1] = at 19.5 µM (top of the series), cells co-treated with 5-aza-dC sensitizer, scaled: neutral wells 0, ellipticine wells 100

| SMILES | activation [1] | further results |
| --- | --- | --- |
| COc1ccccc1CN1CC[C@H]2[C@H](CO)Nc3ccc(C#Cc4ccccc4)cc3[C@H]21 | 0% (inactive) |  |
| CCCOc1ccc(C(=O)Nc2ccc(CN3CCOCC3)cc2)cc1 | -0.053% (inactive) |  |
| COc1ccc(S(=O)(=O)Nc2ccc3c(c2)C(=O)N([C@@H](C)CO)C[C@H](C)[C@H](CN(C)C(=O)CCCN(C)C)OCCCC[C@H](C)O3)cc1 | 0.053% (inactive) |  |
| O=C1c2ccccc2C(=O)C1c1ccccc1 | -0.024% (inactive) |  |
| CC(=O)Nc1ccc(NS(=O)(=O)c2ccc3c(c2)oc(=O)n3C)cc1 | 5.23% (inactive) |  |
| CC(C)n1c(NCc2cc(Cl)ccc2O)nc2ccccc21 | -0.029% (inactive) |  |
| COc1ccc(CCCc2nc3ccccc3[nH]2)cc1 | -0.001% (inactive) |  |
| Cn1c(=O)c(C#N)c(-c2ccc(F)cc2)c2cc(C(=O)c3cc(Cl)cc(Cl)c3O)cnc21 | -0.044% (inactive) |  |
| CN1OC[C@@H]2CN(Cc3ccccc3)[C@H](c3cccc(N4CCOCC4)c3)C[C@@H]21 | 0.022% (inactive) |  |
| CN(c1ccccc1)S(=O)(=O)c1ccc(C(=O)NCC(c2ccco2)N2CCCCC2)cc1 (stereo unspecified) | -0.009% (inactive) |  |
| CNC(=O)C[C@H]1C(=O)N(c2ccccc2)C[C@@H]1C | 0.464% (inactive) |  |
| C[C@H]1CN([C@@H](C)CO)S(=O)(=O)c2ccc(Br)cc2O[C@H]1CN(C)C(=O)c1cccnc1 | -0.033% (inactive) |  |
| COc1ccc(OC)c(NC(=O)Nc2ccc3[nH]ccc3c2)c1 | -0.035% (inactive) |  |
| COc1ccc(N2C(=O)C3CCCN3C2c2cccc(OC)c2)cc1 (stereo unspecified) | 0.02% (inactive) |  |
| Brc1cccc(CNCC2CCCO2)c1 (stereo unspecified) | 0.116% (inactive) |  |
| Cc1ccc(-c2ccc3c(c2)O[C@@H](CN(C)Cc2ccncc2)[C@@H](C)CN([C@@H](C)CO)S3(=O)=O)cc1 | 0% (inactive) |  |
| Cc1ccc(-c2csc3nc4c5ccccc5c(NCCCN(C)C)nn4c(=O)c23)cc1 | -0.05% (inactive) |  |
| C/C=C/Cn1c(SCCCc2ccccc2)nc2c1c(=O)[nH]c(=O)n2C | -0.024% (inactive) |  |
| CC(Sc1nnc(Cc2ccccc2)o1)C(=O)Nc1ccccc1[N+](=O)[O-] (stereo unspecified) | -0.032% (inactive) |  |
| CN1CCN(S(=O)(=O)c2ccc(C#N)cc2)C(c2ccccc2)C1 (stereo unspecified) | 0.227% (inactive) |  |
| O=C(COC(=O)COc1cccc(C(F)(F)F)c1)NC1CCS(=O)(=O)C1 (stereo unspecified) | -0.034% (inactive) |  |
| CC(NC(=O)c1ccccc1)C(=O)N/N=C/c1ccccc1 (stereo unspecified) | 0.535% (inactive) |  |

| SMILES | activation [1] | further results |
| --- | --- | --- |
| O=C(CNC(=O)c1ccccc1F)OCc1nc2ccccc2s1 | -0.127% (inactive) |  |
| C[C@H](CO)N1C[C@H](C)[C@H](CN(C)S(=O)(=O)c2ccccc2)Oc2ccc(NS(=O)(=O)c3ccc(Cl)cc3)cc2C1=O | 0.163% (inactive) |  |
| C=CCn1c(=S)[nH]c2scc(-c3ccco3)c2c1=O | 0.072% (inactive) |  |
| COc1ccc2c3c(n(C)c2c1)[C@@H](CO)N(C)CC31CN(C(=O)NC(C)C)C1 | -0.012% (inactive) |  |
| COc1cccc(CNC(=O)c2cc(S(=O)(=O)N3CCCC3)cn2C)c1 | 0.095% (inactive) |  |
| Cc1cccc(-c2ccc([C@@H]3[C@@H](CO)N4CCCCN(S(=O)(=O)c5ccccc5F)C[C@H]34)cc2)c1 | 0% (inactive) |  |
| CC=Cc1ccc2n(c1=O)C[C@@H]1[C@@H](CO)[C@H](C(=O)NCCCN(C)C)[C@H]2N1C(=O)c1ccccc1F (mixture of isomers) | -0.01% (inactive) |  |
| CCC(C)c1nc2ccsc2c(N2CCOC2=O)c1-c1ccccc1 (stereo unspecified) | -0.032% (inactive) |  |
| CNc1ncnc(Sc2ccc(Cl)cc2)c1[N+](=O)[O-] | 0.297% (inactive) |  |
| Cc1ccc(OCCN2CCN(CC(O)Cn3c4ccccc4c4ccccc43)CC2)cc1 (stereo unspecified) | 5.68% (inactive) |  |
| CCN(CC)c1ccc(N=Cc2ccc([N+](=O)[O-])o2)cc1 | 0.626% (inactive) |  |
| Cc1ccc(S(=O)(=O)c2ccc([N+](=O)[O-])cn2)cc1 | -0.05% (inactive) |  |
| NNC(=O)/C(=C\c1ccc(Br)cc1)NC(=O)c1cccs1 | -0.053% (inactive) |  |
| CCOC(=O)c1nn(-c2ccc3ccccc3c2)cc1O | 0.359% (inactive) |  |
| CCCNNC(=O)C(O)(c1ccccc1)c1ccccc1 | -0.099% (inactive) |  |
| COc1ccc(C(=O)Nc2ccc3oc(-c4cccc(F)c4)nc3c2)cc1OC | 0.002% (inactive) |  |
| COc1ccc(Cl)cc1C(=O)Nc1ccccc1N1CCCCC1 | 1.48% (inactive) |  |
| CC(O)(c1ccccc1)c1nc(-c2ccncc2)cs1 (stereo unspecified) | 0.105% (inactive) |  |
| CC(C)(C)[S@@](=O)N1Cc2cc(C(=O)N3CCCCC3)nc(-c3cccc(-c4cccc(C#N)c4)c3)c2[C@H]1CCO | -0.031% (inactive) |  |
| Cc1oc2ccc(NS(=O)(=O)c3cccc4cccnc34)cc2c1C(=O)OC(C)C | 0.423% (inactive) |  |
| CCOC(=O)c1sc2nc(CSc3ccccc3)[nH]c(=O)c2c1C | 0.303% (inactive) |  |
| C[C@@H]1CN(C)C(=O)Cc2cc(N(C)C)ccc2O[C@@H]1CN(C)S(C)(=O)=O | 0.115% (inactive) |  |

| SMILES | activation [1] | further results |
| --- | --- | --- |
| CCOc1ccccc1N1C(=O)CC(Sc2nccc(C)n2)C1=O (stereo unspecified) | -0.095% (inactive) |  |
| NNc1nc2c(-c3ccc(F)cc3)nnn2c2ccccc12 | 0.731% (inactive) |  |
| O=C(c1ccc(Br)cc1)c1cc([N+](=O)[O-])ccc1N1CCOCC1 | 4.21% (inactive) |  |
| CN(Cc1cccs1)C(=O)Cc1c[nH]c2ccccc12 | -0.024% (inactive) |  |
| CCCn1c(SCC(=O)NCc2ccc(C)cc2)n[nH]c1=O | -0.121% (inactive) |  |
| C/C(=N\NC(=O)CC1N=C(Cc2ccccc2)NNC1=O)c1ccc(Br)cc1 (stereo unspecified) | 0.028% (inactive) |  |
| Cc1ccc(N2C(=O)C3C4C=CC(CNC(=S)N5CCN(c6ccccc6)CC5)(O4)C3C2=O)cc1 (stereo unspecified) | -0.008% (inactive) |  |
| COc1ccc(NC(=O)Nc2ccc3c(c2)C(=O)N([C@@H](C)CO)C[C@H](C)[C@@H](CN(C)S(=O)(=O)c2ccc(OC)cc2)O3)cc1 | 0.014% (inactive) |  |
| Cc1ccc(S(=O)(=O)N2CCN(C(=O)COC(=O)c3ccccc3OC(F)F)CC2)c(C)c1 | -0.006% (inactive) |  |
| CC1CCCC(NC(=O)CSc2cccc[n+]2[O-])C1C (stereo unspecified) | 0.125% (inactive) |  |
| O=c1[nH]c(=O)n(CCC2=CCCCC2)c(O)c1/C=N/Nc1ccccc1 |  | activation (at 19.5 µM (top of the series)): -0.002% (inactive) |
| Cc1cc(NC(=O)c2c(-c3c(Cl)cccc3Cl)noc2C)n(C)n1 | -0.127% (inactive) |  |
| COCCNC(=S)N(Cc1cccnc1)Cc1ccc(OC)c(OC)c1 | 0.071% (inactive) |  |
| Nc1cc2c3c(cccc3c1)C(=O)N(CCN1CCCC1)C2=O | -0.037% (inactive) |  |
| CCOc1ccc(NC(=S)NC(C)c2cccs2)cc1 (stereo unspecified) | 0.358% (inactive) |  |
| CC(=O)NC(c1ccc(Cl)cc1)c1c(O)ccc2ccc(O)cc12 (stereo unspecified) | 0.013% (inactive) |  |
| Cc1ccc(S(=O)(=O)NN2C(=O)/C(=C/c3ccccn3)SC2=S)cc1 | 0.025% (inactive) |  |
| CCCCCCCCN1C(=O)[C@H](CC(=O)N2CCSCC2)C[C@@]2(C(=O)OCC)CCCC=C12 | 0.117% (inactive) |  |
| COCCN(C(=O)c1ccc2c(c1)C(=O)N(c1ccccc1Cl)C2=O)c1c(N)n(CC(C)C)c(=O)[nH]c1=O | 0.738% (inactive) |  |
| CCOc1ccc(C(=O)c2cc([N+](=O)[O-])ccc2N2CCOCC2)cc1 | 0.569% (inactive) |  |
| O=C(Nc1ccccc1)N1C[C@@H]2[C@H](c3ccccc31)[C@H](CO)N2C(=O)c1ccccc1F | 0.2% (inactive) |  |
| COC(=O)c1ccc(CNC(=O)COC(=O)c2cc(Cl)ccc2O)cc1 | 0.385% (inactive) |  |

| SMILES | activation [1] | further results |
| --- | --- | --- |
| Cc1noc(C)c1NC(=O)N[C@H]1CC[C@H](CC(=O)N2CCN(C)CC2)O[C@H]1CO | 0.116% (inactive) |  |
| O=C(NCc1ccccc1)c1ccccc1Br | 0.035% (inactive) |  |
| COc1ccc(-c2ccc(C3[C@@H]4CN(S(=O)(=O)c5ccccc5C)C[C@H]3N4)cc2)cc1 (stereo partly specified) | 0% (inactive) |  |
| CCc1ccccc1OCC(=O)Nc1ccc(N2CCCC2)cc1C | 0.109% (inactive) |  |
| Cc1cccc(NC(=O)Cn2cnc3c(oc4nc5c(cc43)COC(C)(C)C5)c2=O)c1 | 4.42% (inactive) |  |
| CC(=NNC(=S)Nc1cccc(Cl)c1)c1ccccn1 | -0.035% (inactive) |  |
| CC(=O)N[C@@H](CC(=O)O)C(=O)O | -0.053% (inactive) |  |
| COc1ccc(S(=O)(=O)N(C)C[C@@H]2OCc3cn(nn3)CCCC(=O)N([C@@H](C)CO)C[C@@H]2C)cc1 |  | activation (at 21 µM (top of the series), cells co-treated with 5-aza-dC sensitizer, scaled: neutral wells 0, ellipticine wells 100): 0.05% (inactive) |
| O=C(Nc1cccc(C(=O)O)c1)/C(=C\c1ccccc1)NC(=O)c1ccc(Br)o1 | 0.02% (inactive) |  |
| Cc1cc(NC(=O)CSc2nnc(-c3c[nH]c4ccccc34)n2-c2ccc(F)cc2)no1 | 0.139% (inactive) |  |
| CCC(=O)N1CC(=O)N2[C@@H](CO)[C@@H](c3ccc(-c4ccccc4F)cc3)[C@@H]2C1 | 0% (inactive) |  |
| Cc1ccc(/C=C/C(=O)N2CCN(S(=O)(=O)/C=C/c3ccccc3)CC2)o1 | 0.382% (inactive) |  |
| C/C(CC(=O)Nc1ccc(C)c(Cl)c1)=N\NC(=O)Cc1ccccc1 | -0.06% (inactive) |  |
| COC(=O)c1cc(NS(=O)(=O)c2ccc(NC(C)=O)cc2)ccc1Cl | -0.044% (inactive) |  |
| Cc1cc2c(NC(=O)Nc3ccc(C(C)(C)C)cc3)cccc2nn1 | 0.068% (inactive) |  |
| Oc1c(C(c2ccccc2Cl)N2CCCC2)ccc2cccnc12 (stereo unspecified) | -0.035% (inactive) |  |
| N/C(=N\c1nc(CSc2nc3ccccc3s2)cc(=O)[nH]1)Nc1ccc(F)cc1 | 8.8% (inactive) |  |
| CC[C@]12c3[nH]c4cc(CCC(=O)N(C)C)ccc4c3CCN1C(=O)[C@@H](CC(=O)NCCC1=CCCCC1)C[C@@H]2C(=O)N1CCN(C(=O)c2ccco2)CC1 | 0.011% (inactive) |  |
| Cc1[nH]c2ccc(Br)cc2c(=O)c1CN1CCCCCC1 | -0.013% (inactive) |  |
| COc1ccc2c3c([nH]c2c1)[C@@H](CO)N(Cc1ccccc1F)CC31CN(C(=O)C2CCOCC2)C1 | 0.046% (inactive) |  |
